As usually defined, the GI50 is the concentration that inhibits growth by half. Lower therefore signals greater sensitivity of the cells.

Bounds are passed on as bounds.

One assay deals with caspase-3/7 activity. Kind of assay: Caspase-3/7 Activity Assay in Jurkat cells. The assay is classed as cell-based. The following applies: 18 h. How it is done: Jurkat cells (3 × 10^3) were seeded in 96-well plates in 25 μl culture medium. Cells were treated with compounds dissolved in 25 μl medium at the indicated concentration for 18 h. After adding 50 μl of Caspase-Glo® 3/7 Reagent (Promega, G8091) to each well for 30 min at room temperature, the luminescence was measured on a Spark® Multimode Microplate Reader (Tecan). The data was analyzed by the GraphPad Prism 9.0.

The target of a further assay is T1, BRD2 and DCAF11 (Homo sapiens, UniProt P25440+Q8TEB1).
T1 construct: expressed in transfected cells; host or cells: Hep G2
Kind of assay: Co-immunoprecipitation of FLAG-BRD2 and HA-DCAF11 in Hep G2 cells. The assay is classed as cell-based. To be noted: MG-132 10 μM, 40 min, compound 10 μM. How it is done:
Hep G2 cells were seeded in 6-well plates, 24 h later, cells were transiently transfected with HA-DCAF11 (Sino Biological, HG16257-NY) and FLAG-BRD2 for 48 h using the FuGENE® HD transfection reagent (Promega, E2311). […] After determination of the protein concentration, cell lysates were incubated with anti-FLAG magnetic beads (30 μl / sample, Sigma, M8823) at 4 °C for 4 h and washed three times with washing buffer (0.2% NP-40, 25 mM Tris-HCl pH 7.4, 150 mM NaCl). The beads were diluted with PBS, mixed with SDS sample buffer and heated at 95 °C for 10 min, followed by western blot analysis.

The target of assay [1] is T2, DCAF11 (Homo sapiens, UniProt Q8TEB1). The assay can be described thus: In-gel fluorescence labelling of purified DCAF11. The assay is classed as binding. The following applies: purified DCAF11 pretreated with compound 2 for 40 min, then 18 for 40 min. Here is the method: Purified DCAF11 protein (1 μg, Origene, TP760719) was diluted in PBS buffer that is mixed with compound 2 or BODIPY derivative 18 at the indicated concentration at room temperature. Samples were diluted with 5 × SDS sample loading buffer and heated at 95 °C for 5 min. Proteins were separated using SDS-PAGE and were visualized using the ChemiDoc MP Imaging System (BIO-RAD) at 488 nm and the results were analyzed by Image Lab (BIORAD).

Assay [2] deals with T2, DCAF11. The assay can be described thus: Affinity-based enrichment (biotin-streptavidin pulldown) in Hep G2 cells overexpressing HA-DCAF11. On the set-up: host or cells: Hep G2. The class given is binding. To be noted: 100 μM compound 2 pretreatment for 1 h. Here is the method:
Hep G2 cells (1 × 10^6 cells/well) were seeded in 6-well plates and incubated for 24 h. On the next day, the cells were transfected with 1 µg pCMV3-N-HA-DCAF11 plasmid (Sino Biological, HG16257-NY) or 1 µg empty vector (pcDNA3.1(+), Thermo Fisher, V79020) and 2.5 µL FuGENE® HD transfection reagent (Promega, E2311) per well. The cells were incubated for 48 h prior to treatment with 100 μM compound 2 for 1 h. […] The cells were washed with ice-cold PBS, then lysed in lysis buffer (150 mM sodium chloride, 1% NP-40, 50 mM TRIS-HCl, pH 8.0 with complete protease inhibitor cocktail (Roche, 11836170001)) for 30 min on ice. After centrifugation at 16,000 x g, the supernatant was transferred into a new tube and the protein concentration was determined using the DC protein assay (BIO-RAD, 5000116).
The supernatant was discarded and 1 mg of lysate in 500 µL lysis buffer was added to the beads and incubated for 1 h at room temperature with overhead rotation. The beads were washed twice with 500 µL washing buffer (50 mM PIPES (pH 7.4), 50 mM NaCl, 75 mM MgCl2, 5 mM EGTA, 0.1% NP-40, 0.1% Triton X-100, 0.1% Tween20) and twice with PBS for 10 min each at room temperature with overhead rotation. Enriched proteins were eluted by boiling of the beads at 95 °C for 5 min in 20 µL of a supersaturated (25 mM) biotin solution and visualized by Western Blotting as described above.

Another assay concerns the target PDEδ (Homo sapiens, UniProt O43924). The assay can be described thus: PDEδ levels by Western blot in Jurkat cells. The assay is classed as cell-based. On the set-up: endogenous in cells; host or cells: Jurkat. The following applies: 10 μM, 6 h.
Another assay relates to Hep G2 cells. Kind of assay: Cell viability assay (CellTiter-Glo) in Hep G2 cells. The assay is classed as cell-based. The following applies: Homo sapiens, HepG2, 72 h. Here is the method: Jurkat cells (3 × 10^3) and Hep G2 cells (3.5 × 10^3) were seeded in 96-well plates in 100 μL culture medium. Cells were treated with compounds dissolved in 50 μl medium at the indicated concentration for 72 h, at the same time, one plate of cells without compounds treatment was used for the cell count at time zero. After adding 40 μl of CellTiter-Glo® reagent (Promega, G7571) to each well for 10 min at room temperature, the luminescence was measured on a Spark® Multimode Microplate Reader (Tecan). The data was analyzed by the GraphPad Prism 9.0.
A general note: Cellular ATP, detected with luciferase, serves as a proxy for viable cell number.

As for `Cc1sc2c(c1C)C(c1ccc(Cl)cc1)=N[C@@H](CC(=O)NCCOCCOCCOCCOCCNC(=O)COc1c(Br)cc(/C=C3\C(=O)Nc4ccc(Br)cc43)cc1Br)c1nnc(C)n1-2` [Compound 9], the “caspase-3/7 activation compared with JQ1 or non-active degraders 16 and 17” value in the assay with caspase-3/7 activity was “substantially higher”. Besides, at BRD2 and DCAF11, the “complex formation between BRD2 and DCAF11 (co-immunoprecipitation)” value is “mediates complex formation between BRD2 and DCAF11”.
Regarding `O=C1Nc2ccc(Br)cc2C1=Cc1cc(Br)c(O)c(Br)c1` [Compound 2], the “competition of DCAF11 labelling by 18” value on DCAF11 [1] is “binding is prevented”. Also, the “competition of DCAF11 enrichment by probe 14” value at DCAF11 [2] is reported as “reduced the enrichment”. Moreover, the “PDEδ protein levels, ligands alone or in combination” value on PDEδ is given as “did not reduce PDEδ protein levels”. In the assay with Hep G2 cells, this compound yielded a 50% growth inhibitory concentration (GI50) above 30 µM.
Turning to `Cc1sc2c(c1C)C(c1ccc(Cl)cc1)=NC(CC(=O)NCCOCCOCCOCCOc1c(Br)cc(C=C3C(=O)Nc4ccc(Br)cc43)cc1Br)c1nnc(C)n1-2` (stereo not shown) [Compound 10], in the assay with caspase-3/7 activity, the “caspase-3/7 activation compared with JQ1 or non-active degraders 16 and 17” value is “substantially higher”.

Source of the values: article PMC10689823, “Discovery of a Drug-like, Natural Product-Inspired DCAF11 Ligand Chemotype” (Nature Communications, 2023).
